Test results published in US20250129078A1, “ERBB2 INHIBITORS” (Cogent Biosciences, Inc., priority 2023, published 2025).
Structures can show the parent of a compound that is named as a salt. Where two headings read alike, the source gives them in different places.

Key:
EGFR WT = EGFR WT (Homo sapiens (Human), UniProt P00533); assay: ErbB enzyme assay (CisBio HTRF-KinEASE-TK), EGFR WT; format: biochemical; conditions: ATP at Km (25 μM), 1 h incubation
How it was run: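 IC50 comes from a 4-parameter fit where the curve crosses 50 percent of control, using the 655/620 nm time-resolved fluorescence ratio with DMSO-only and pre-quenched references. Kinase reactions ran 1 h at ambient temperature before Sa-XL665/cryptate-antibody detection (1 h).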

ErbB2 V777L = ErbB2 V777L (Homo sapiens (Human), UniProt P04626, V777L); assay: ErbB enzyme assay (CisBio HTRF-KinEASE-TK), ErbB2 V777L; format: biochemical
Description: In vitro enzyme assays based on CisBio HTRF-KinEASE-TK technology were used to determine compound potencies. […] After another 1 h incubation at ambient temperature, the extent of substrate phosphorylation was determined using a PerkinElmer EnVision multimode plate reader via time-resolved fluorescence dual wavelength detection. The percent of control (POC) was calculated using the ratio of emission at […] to the emission at 620 nm. One hundred POC was determined using DMSO only controls (no test compounds present) and zero POC was determined using pre-quenched controls reactions. A 4-parameter logistic equation was fit to the POC values as a function of the test compound concentration and the IC50 value was determined as the point where the curve crossed 50 POC.

[1] = ErbB2 V777L enzyme, ATP at Km (110 μM), 1 h incubation

Sequence of EGFR WT (P00533 25-1210): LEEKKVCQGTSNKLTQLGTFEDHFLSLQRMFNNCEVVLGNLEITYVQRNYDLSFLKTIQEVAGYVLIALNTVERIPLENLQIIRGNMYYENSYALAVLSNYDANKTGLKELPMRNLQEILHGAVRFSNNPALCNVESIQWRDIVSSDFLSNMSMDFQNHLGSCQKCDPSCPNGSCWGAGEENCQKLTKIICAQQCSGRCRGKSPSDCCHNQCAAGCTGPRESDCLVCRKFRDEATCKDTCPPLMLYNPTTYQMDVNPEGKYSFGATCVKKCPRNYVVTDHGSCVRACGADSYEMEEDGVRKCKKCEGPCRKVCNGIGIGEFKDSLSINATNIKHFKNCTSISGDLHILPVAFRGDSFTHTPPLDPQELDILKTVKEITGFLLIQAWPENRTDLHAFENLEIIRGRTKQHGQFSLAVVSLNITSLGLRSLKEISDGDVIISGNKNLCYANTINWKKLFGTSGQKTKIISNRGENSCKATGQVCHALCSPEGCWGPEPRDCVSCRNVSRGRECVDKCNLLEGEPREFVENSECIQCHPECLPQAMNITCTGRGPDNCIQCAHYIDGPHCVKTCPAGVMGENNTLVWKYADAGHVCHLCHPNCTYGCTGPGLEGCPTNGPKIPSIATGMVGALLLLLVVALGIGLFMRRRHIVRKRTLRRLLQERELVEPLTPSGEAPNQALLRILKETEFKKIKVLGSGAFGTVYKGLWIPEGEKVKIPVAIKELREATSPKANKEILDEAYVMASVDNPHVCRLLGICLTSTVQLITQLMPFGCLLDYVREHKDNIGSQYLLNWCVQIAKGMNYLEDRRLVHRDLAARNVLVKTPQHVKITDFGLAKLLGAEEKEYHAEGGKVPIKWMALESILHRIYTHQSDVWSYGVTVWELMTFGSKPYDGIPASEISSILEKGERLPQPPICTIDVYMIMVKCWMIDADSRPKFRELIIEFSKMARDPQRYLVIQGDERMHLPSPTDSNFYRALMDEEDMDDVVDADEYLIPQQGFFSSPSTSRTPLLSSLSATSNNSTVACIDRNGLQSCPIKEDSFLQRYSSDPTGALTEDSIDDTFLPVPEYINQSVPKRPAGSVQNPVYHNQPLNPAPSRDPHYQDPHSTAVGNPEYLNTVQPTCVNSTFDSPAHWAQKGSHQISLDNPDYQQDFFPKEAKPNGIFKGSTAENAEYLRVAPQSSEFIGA
Sequence of ErbB2 V777L (P04626 23-1255 V777L): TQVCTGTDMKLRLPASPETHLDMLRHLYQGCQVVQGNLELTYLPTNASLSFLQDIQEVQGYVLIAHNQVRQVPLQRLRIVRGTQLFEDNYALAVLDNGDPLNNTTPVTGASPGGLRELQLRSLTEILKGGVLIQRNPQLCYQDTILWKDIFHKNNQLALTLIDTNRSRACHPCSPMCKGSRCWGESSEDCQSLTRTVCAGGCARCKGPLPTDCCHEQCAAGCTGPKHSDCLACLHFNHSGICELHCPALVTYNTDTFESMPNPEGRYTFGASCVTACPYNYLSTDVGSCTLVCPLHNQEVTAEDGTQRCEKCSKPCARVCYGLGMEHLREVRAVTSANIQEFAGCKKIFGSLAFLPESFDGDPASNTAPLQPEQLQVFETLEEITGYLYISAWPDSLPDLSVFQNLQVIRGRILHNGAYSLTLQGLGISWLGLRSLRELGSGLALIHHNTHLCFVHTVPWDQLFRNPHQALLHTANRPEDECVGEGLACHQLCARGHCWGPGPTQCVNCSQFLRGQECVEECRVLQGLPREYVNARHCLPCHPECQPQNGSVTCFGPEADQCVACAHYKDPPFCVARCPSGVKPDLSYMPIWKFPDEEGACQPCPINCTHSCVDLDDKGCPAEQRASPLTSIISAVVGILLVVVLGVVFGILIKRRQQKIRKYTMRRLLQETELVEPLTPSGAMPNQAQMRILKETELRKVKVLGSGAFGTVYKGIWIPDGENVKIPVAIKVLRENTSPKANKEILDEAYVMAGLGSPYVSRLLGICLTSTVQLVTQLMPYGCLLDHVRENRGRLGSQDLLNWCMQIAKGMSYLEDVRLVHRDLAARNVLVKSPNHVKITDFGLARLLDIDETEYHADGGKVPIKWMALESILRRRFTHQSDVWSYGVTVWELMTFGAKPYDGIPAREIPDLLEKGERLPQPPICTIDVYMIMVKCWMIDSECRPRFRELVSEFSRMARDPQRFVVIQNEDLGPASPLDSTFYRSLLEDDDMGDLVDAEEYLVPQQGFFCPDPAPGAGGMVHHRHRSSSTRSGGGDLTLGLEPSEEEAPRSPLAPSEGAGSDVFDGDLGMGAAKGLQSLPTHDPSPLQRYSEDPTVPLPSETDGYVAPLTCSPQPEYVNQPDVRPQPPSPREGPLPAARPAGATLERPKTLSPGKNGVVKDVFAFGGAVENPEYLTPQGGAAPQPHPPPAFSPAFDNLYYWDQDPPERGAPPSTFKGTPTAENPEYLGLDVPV

| SMILES | IC50 (EGFR WT) | IC50 (ErbB2 V777L) | IC50 (ErbB2 V777L; [1]) |
| --- | --- | --- | --- |
| C=CC(=O)N[C@H]1CCCN(c2ccc3ncnc(Nc4ccc(Oc5ccc6c(c5)nnn6C)c(C)c4F)c3n2)[C@@H]1C (single isomer, unassigned) [Compound 348] | 50 to 100 nM | 100 to 500 nM |  |
| C=CC(=O)N[C@@H]1CCCN(c2ccc3ncnc(Nc4ccc(Oc5ccc6c(c5)nnn6C)c(C)c4F)c3n2)[C@H]1C (single isomer, unassigned) [Compound 349] | 100 to 500 nM | 50 to 100 nM |  |
| C=CC(=O)N1C[C@@H]2CCN(c3ccc4ncnc(Nc5ccc(Oc6ccc7c(c6)nnn7C)c(C)c5)c4n3)[C@@H]2C1 (stereo in doubt) [Compound 314, 1-(1-(4-((3-methyl-4-((1-methyl-1H-benzo[d][1,2,3]triazol-5-yl)oxy)phenyl)amino)pyrido[3,2-d]pyrimidin-6-yl)hexahydropyrrolo[3,4-b]pyrrol-5(1H)-y1)prop-2-en-1-one] | 100 to 500 nM | 50 to 100 nM |  |
| C=CC(=O)N1CCN(c2ncc3ncnc(Nc4ccc(Oc5ccc6c(c5)nnn6C)c(C)c4)c3n2)C[C@H]1C [Compound 1, (R)-1-(2-methyl-4-(8-((3-methyl-4-((1-methyl-1H-benzo[d][1,2,3]triazol-5-yl)oxy)phenyl)amino)pyrimido[5,4-d]pyrimidin-2-yl)piperazin-1-yl)prop-2-en-1-one] | 100 to 500 nM | 50 to 100 nM |  |
| C=CC(=O)N1CCN(c2ncc3ncnc(Nc4ccc(Oc5ccc6c(c5)nnn6C)c(C)c4)c3n2)C[C@@H]1C [Compound 2, (S)-1-(2-methyl-4-(8-((3-methyl-4-((1-methyl-1H-benzo[d][1,2,3]triazol-5-yl)oxy)phenyl)amino)pyrimido[5,4-d]pyrimidin-2-y1)piperazin-1-yl)prop-2-en-1-one] | 100 to 500 nM | 50 to 100 nM |  |
| C=CC(=O)N1CCN(c2ncc3ncnc(Nc4cc(C)c(Oc5ccc6c(c5)nnn6C)cc4F)c3n2)CC1 [Compound 6, 1-(4-(8-((2-fluoro-5-methyl-4-((1-methyl-1H-benzo[d][1,2,3]triazol-5-yl)oxy)phenyl)amino)pyrimido [5,4-d]pyrimidin-2-yl)piperazin-1-yl)prop-2-en-1-one] | 100 to 500 nM | 100 to 500 nM |  |
| C=CC(=O)N(C)C1CCN(c2ncc3ncnc(Nc4ccc(Oc5ccc6c(c5)nnn6C)c(C)c4F)c3n2)C1 (stereo not drawn) [Compound 9, N-(1-(8-((2-fluoro-3-methyl-4-((1-methyl-1H-benzo[d][1,2,3]triazol-5-yl)oxy)phenyl)amino)pyrimido [5,4-d]pyrimidin-2-yl)pyrrolidin-3-y1)-N-methylacrylamide] | 500 to 1000 nM | 100 to 500 nM |  |
| C=CC(=O)N1CCN(c2ncc3ncnc(Nc4cc(C)c(Oc5ccc6c(c5)nnn6C)cc4OC)c3n2)CC1 [Compound 12, 1-(4-(8-((2-methoxy-5-methyl-4-((1-methyl-1H-benzo[d][1,2,3]triazol-5-yl)oxy)phenyl)amino)pyrimido[5,4-d]pyrimidin-2-yl)piperazin-1-yl)prop-2-en-1-one 2,2,2-trifluoroacetate] | 100 to 500 nM | 100 to 500 nM |  |
| C=CC(=O)N1C2CC1CN(c1ncc3ncnc(Nc4cc(C)c(Oc5ccc6c(c5)nnn6C)cc4OC)c3n1)C2 [Compound 13, 1-(3-(8-((2-methoxy-5-methyl-4-((1-methyl-1H-benzo[d][1,2,3]triazol-5-yl)oxy)phenyl)amino)pyrimido[5,4-d]pyrimidin-2-y1)-3,6-diazabicyclo[3.1.1]heptan-6-yl)prop-2-en-1-one] | 100 to 500 nM | 100 to 500 nM |  |
| C=CC(=O)N1CC2CC(C1)N2c1ncc2ncnc(Nc3ccc(Oc4ccc5c(c4)nnn5C)c(C)c3)c2n1 [Compound 16, 1-(6-(8-((3-methyl-4-((1-methyl-1H-benzo[d][1,2,3]triazol-5-yl)oxy)phenyl)amino)pyrimido[5,4-d]pyrimidin-2-yl)-3,6-diazabicyclo[3.1.1]heptan-3-yl)prop-2-en-1-one] | 100 to 500 nM | 100 to 500 nM |  |
| C=CC(=O)N1CCN(c2ncc3ncnc(Nc4ccc(Oc5ccc6c(c5)nnn6C)c(C)c4)c3n2)[C@H](C)C1 [Compound 17, (R)-1-(3-methyl-4-(8-((3-methyl-4-((1-methyl-1H-benzo[d][1,2,3]triazol-5-yl)oxy)phenyl)amino)pyrimido[5,4-d]pyrimidin-2-yl)piperazin-1-yl)prop-2-en-1-one] | 500 to 1000 nM | 100 to 500 nM |  |
| C=CC(=O)N1CCN(c2ncc3ncnc(Nc4ccc(Oc5ccc6c(c5)nnn6C)c(C)c4)c3n2)[C@@H](C)C1 [Compound 18, (S)-1-(3-methyl-4-(8-((3-methyl-4-((1-methyl-1H-benzo[d][1,2,3]triazol-5-yl)oxy)phenyl)amino)pyrimido[5,4-d]pyrimidin-2-yl)piperazin-1-yl)prop-2-en-1-one 2,2,2-trifluoroacetate] | 100 to 500 nM | 50 to 100 nM |  |
| C=CC(=O)N1CCN(c2ncc3ncnc(Nc4c(F)cc(Oc5ccc6c(c5)nnn6C)c(F)c4F)c3n2)CC1 [Compound 19, 1-(4-(8-((2,3,6-trifluoro-4-((1-methyl-1H-benzo[d][1,2,3]triazol-5-yl)oxy)phenyl)amino)pyrimido [5,4-d]pyrimidin-2-yl)piperazin-1-yl)prop-2-en-1-one] | 100 to 500 nM | 100 to 500 nM |  |
| C=CC(=O)N1CCN(c2ncc3ncnc(Nc4c(F)cc(Oc5ccc6c(c5)nnn6C)cc4F)c3n2)CC1 [Compound 20, 1-(4-(8-((2,6-difluoro-4-((1-methyl-1H-benzo[d][1,2,3]triazol-5-yl)oxy)phenyl)amino)pyrimido[5,4-d]pyrimidin-2-yl)piperazin-1-yl)prop-2-en-1-one] | 100 to 500 nM | 500 to 1000 nM |  |
| C=CC(=O)N1CCN(c2ncc3ncnc(Nc4ccc(Oc5ccc6c(c5)nnn6C)cc4F)c3n2)CC1 [Compound 22, 1-(4-(8-((2-fluoro-4-((1-methyl-1H-benzo[d][1,2,3]triazol-5-yl)oxy)phenyl)amino)pyrimido[5,4-d]pyrimidin-2-yl)piperazin-1-yl)prop-2-en-1-one] | 100 to 500 nM | 100 to 500 nM |  |
| C=CC(=O)N(C)C1CN(c2ncc3ncnc(Nc4ccc(Oc5ccc6c(c5)nnn6C)c(C)c4)c3n2)C1 [Compound 26, N-methyl-N-(1-(8-((3-methyl-4-((1-methyl-1H-benzo[d][1,2,3]triazol-5-yl)oxy)phenyl)amino)pyrimido[5,4-d]pyrimidin-2-yl)azetidin-3-yl)acrylamide] | 100 to 500 nM | 100 to 500 nM |  |
| C=CC(=O)N1CCN(c2ncc3ncnc(Nc4cc(C)c(Oc5cc(F)c6c(c5)nnn6C)cc4OC)c3n2)C[C@H]1C [Compound 166, (R)-1-(4-(8-((4-((7-fluoro-1-methyl-1H-benzo[d][1,2,3]triazol-5-yl)oxy)-2-methoxy-5-methylphenyl)amino)pyrimido[5,4-d]pyrimidin-2-y1)-2-methylpiperazin-1-yl)prop-2-en-1-one] |  |  | 500 to 1000 nM |
| C=CC(=O)N1CCCN(c2ccc3ncnc(Nc4ccc(Oc5ccc6c(c5)nnn6C)c(C)c4)c3n2)CC1 [Compound 353, 1-(4-(4-((3-methyl-4-((1-methyl-1H-benzo[d][1,2,3]triazol-5-yl)oxy)phenyl)amino)pyrido[3,2-d]pyrimidin-6-yl)-1,4-diazepan-1-yl)prop-2-en-1-one] |  |  | 100 to 500 nM |
| C=CC(=O)N1CCC=C(c2ccc3ncnc(Nc4ccc(Oc5ccc6c(c5)nnn6C)c(C)c4)c3n2)C1 [Compound 407, 1-(5-(4-((3-methyl-4-((1-methyl-1H-benzo[d][1,2,3]triazol-5-yl)oxy)phenyl)amino)pyrido[3,2-d]pyrimidin-6-yl)-3,6-dihydropyridin-1(2H)-yl)prop-2-en-1-one] | < 50 nM |  |  |
| C=CC(=O)N1C2C=C(c3ccc4ncnc(Nc5ccc(Oc6ccc7c(c6)nnn7C)c(C)c5)c4n3)CC1COC2 (stereo not drawn) [Compound 408, 1-(7-(4-((3-methyl-4-((1-methyl-1H-benzo[d][1,2,3]triazol-5-yl)oxy)phenyl)amino)pyrido[3,2-d]pyrimidin-6-yl)-3-oxa-9-azabicyclo[3.3.1]non-6-en-9-yl)prop-2-en-1-one trifluoroacetate] | 100 to 500 nM |  |  |
| C=C(F)C(=O)N1C2C=C(c3ccc4ncnc(Nc5ccc(Oc6ccc7c(c6)nnn7C)c(C)c5)c4n3)CC1COC2 (stereo not drawn) [Compound 410, 2-fluoro-1-(7-(4-((3-methyl-4-((1-methyl-1H-benzo[d][1,2,3]triazol-5-yl)oxy)phenyl)amino)pyrido[3,2-d]pyrimidin-6-yl)-3-oxa-9-azabicyclo[3.3.1]non-6-en-9-yl)prop-2-en-1-one trifluoroacetate] | ≥ 1000 nM |  |  |
| C=C(F)C(=O)N1C2C=C(c3ccc4ncnc(Nc5ccc(Oc6ccc7c(c6)nnn7C)c(C)c5)c4n3)CC1CC2 (stereo not drawn) [Compound 411, 2-fluoro-1-(3-(4-((3-methyl-4-((1-methyl-1H-benzo[d][1,2,3]triazol-5-yl)oxy)phenyl)amino)pyrido[3,2-d]pyrimidin-6-yl)-8-azabicyclo[3.2.1]oct-2-en-8-yl)prop-2-en-1-one trifluoroacetate] | ≥ 1000 nM |  |  |
| C=CC(=O)N1C2C=C(c3ccc4ncnc(Nc5cc(C)c(Oc6ccc7c(c6)nnn7C)cc5OC)c4n3)CC1CCC2 (stereo not drawn) [Compound 413, 1-(3-(4-((2-methoxy-5-methyl-4-((1-methyl-1H-benzo[d][1,2,3]triazol-5-yl)oxy)phenyl)amino)pyrido[3,2-d]pyrimidin-6-yl)-9-azabicyclo[3.3.1]non-2-en-9-yl)prop-2-en-1-one trifluoroacetate] | ≥ 1000 nM |  |  |
